According to patent US6337417B1, “N-phenyltetrahydrophthalamic acid derivatives, methods of producing same, and herbicides containing same as effective components” (Central Glass Co., Ltd., priority 1994, dated 2002):

What was measured:
Format in all cases: in vivo
Parameters in all cases: key: 5: completely killed; 4: seriously injured; 3: considerably injured; 2: somewhat injured; 1: slightly injured; 0: not injured (normally grown)
[1] = tested on: mehishiba (henry crabgrass, Digitaria cliaris); assay: Experiment 5 foliage treatment: mehishiba; details: foliage spray of wettable powder suspension, evaluated 4 weeks after treatment
Experimental: (§1) Upon seedling stage (two- or three-leaved stage) of rice, cockspur (Panicum crus-galli), garden radish, aobiyu (slender amaranth, Amaranthus viridis) and mehishiba (henry crabgrass, Digitaria cliaris) which were grown on a cultivated soil put in pots of 1/15500 ares, a selected compound obtained in a manner analogous to Example 11, in suspended wettable powder, was sprayed to each plant. After that, the pots were kept in a glass chamber to allow each plant to grow, and after the lapse of 4 weeks from the treatment with the selected compounds the herbicidal effects were evaluated. The evaluation of the herbicidal effects was similarly conducted as that of Experiment 1.

[2] = tested on: cockspur (Panicum crus-galli); assay: Experiment 5 foliage treatment: cockspur; details: foliage spray of wettable powder suspension, evaluated 4 weeks after treatment
Experimental: as §1

[3] = tested on: aobiyu (slender amaranth, Amaranthus viridis); assay: Experiment 5 foliage treatment: aobiyu; details: foliage spray of wettable powder suspension, evaluated 4 weeks after treatment
Experimental: as §1

[4] = tested on: nobie (barnyardgrass, Echinochloa spp.); assay: Experiment 4 flooded soil treatment: nobie; details: 4 weeks after treatment
Source text: (§2) Paddy soil (clay loam) was put into a pot so as to have a surface area of 1/15500 ares. Uniformly mixed seeds of several kinds of weeds, viz., nobie (barnyardgrass, Echinochloa spp.), broad-leaved weeds, hotarui (bulrush, Scirpus juncoides) and tamagayatsuri (small-flowered umbrellaplant, Cyperus difformis), were sown in the surface layer of the soil in each pot, and then paddy rice seedlings at the two- or three-leaved stage were transplanted into each pot to a depth of 2 cm, and water was fed into each pot so as to provide a 3 cm deep water layer on the soil surface. After 3 days, in other words at the initial stage of germination of nobie (barnyardgrass, Echinochloa spp.), a predetermined amount of a selected compound obtained in a manner analogous to Example 11 in the form of diluted aqueous solution was dropped into the water layer in each pot. After that, the pots were kept in a glass chamber to allow the paddy rice and the weeds to grow, and after the lapse of 4 weeks from the treatment with the selected compounds, the herbicidal effects and the degree of injury to the paddy rice were evaluated. The evaluation of the herbicidal effects was similarly conducted as to that of Experiment 1.

[5] = tested on: tamagayatsuri (small-flowered umbrellaplant, Cyperus difformis); assay: Experiment 4 flooded soil treatment: tamagayatsuri; details: 4 weeks after treatment
Source text: as §2

paddy rice = assay: Experiment 4 flooded soil treatment: injury to paddy rice; details: 4 weeks after treatment
Source text: as §2

broad-leaved weeds = assay: Experiment 4 flooded soil treatment: broad-leaved weeds; details: 4 weeks after treatment
Source text: as §2

garden radish = assay: Experiment 5 foliage treatment: garden radish; details: foliage spray of wettable powder suspension, evaluated 4 weeks after treatment
Experimental: as §1

rice = assay: Experiment 5 foliage treatment: rice; details: foliage spray of wettable powder suspension, evaluated 4 weeks after treatment
Experimental: as §1

[6] = tested on: hotarui (bulrush, Scirpus juncoides); assay: Experiment 4 flooded soil treatment: hotarui; details: 4 weeks after treatment
Source text: as §2

| Structure (SMILES) | Herbicidal Effect mehishiba ([1]; 40 g/10a) | Herbicidal Effect mehishiba ([1]; 80 g/10a) | Herbicidal Effect cockspur ([2]; 40 g/10a) | Herbicidal Effect cockspur ([2]; 80 g/10a) | Herbicidal Effect aobiyu ([3]; 40 g/10a) | Herbicidal Effect aobiyu ([3]; 80 g/10a) | Herbicidal Effect nobie ([4]; 3.13 g/10a) | Herbicidal Effect nobie ([4]; 6.25 g/10a) | Herbicidal Effect tamagayatsuri ([5]; 3.13 g/10a) | Herbicidal Effect tamagayatsuri ([5]; 6.25 g/10a) | Injury of Paddy (paddy rice; 3.13 g/10a) | Injury of Paddy (paddy rice; 6.25 g/10a) | Herbicidal Effect broad-leaved weed (broad-leaved weeds; 3.13 g/10a) | Herbicidal Effect broad-leaved weed (broad-leaved weeds; 6.25 g/10a) | Herbicidal Effect garden radish (garden radish; 40 g/10a) | Herbicidal Effect garden radish (garden radish; 80 g/10a) | Herbicidal Effect rice (rice; 40 g/10a) | Herbicidal Effect rice (rice; 80 g/10a) | Herbicidal Effect hotarui ([6]; 3.13 g/10a) | Herbicidal Effect hotarui ([6]; 6.25 g/10a) |
| --- | --- | --- | --- | --- | --- | --- | --- | --- | --- | --- | --- | --- | --- | --- | --- | --- | --- | --- | --- | --- |
| C#CC(C)Oc1cc(N(C(=O)C2=C(C(=O)OCCC)CCCC2)C(=O)c2cccnc2)c(F)cc1Cl (stereo not drawn) [Compound No. 58] | 1 | 3 | 1 | 1 | 5 | 5 | 5 | 5 | 5 | 5 | 0 | 0.5 | 5 | 5 | 5 | 5 | 1 | 1 | 4 | 4.5 |
| COC(=O)C1=C(C(=O)N(C(=O)c2cccnc2)c2cc(OC(C)C)c(Cl)cc2F)CCCC1 [compound 56] | 1 | 1 | 1 | 1 | 5 | 5 | 5 | 5 | 5 | 5 | 0.5 | 0.5 | 4.5 | 5 | 5 | 5 | 1 | 1 | 5 | 5 |
| C#CC(C)Oc1cc(N(C(=O)C2=C(C(=O)OCCCC)CCCC2)C(=O)c2cccnc2)c(F)cc1Cl (stereo not drawn) [compound 59] | 1 | 1 | 0 | 1 | 5 | 5 | 5 | 5 | 5 | 5 | 0.5 | 0.5 | 5 | 5 | 5 | 5 | 1 | 1 | 4 | 4 |
| C#CCOC(=O)C1=C(C(=O)N(C(=O)c2cccnc2)c2cc(OC(C)C#C)c(Cl)cc2F)CCCC1 (stereo not drawn) [compound 61] | 4.5 | 5 | 2 | 2 | 5 | 5 | 5 | 5 | 5 | 5 | 0 | 0.5 | 5 | 5 | 5 | 5 | 3 | 4 | 4 | 4 |
| C#CC(C)Oc1cc(N(C(=O)C2=C(C(=O)OC3CCCC3)CCCC2)C(=O)c2cccnc2)c(F)cc1Cl (stereo not drawn) [compound 62] | 1 | 1 | 1 | 1 | 5 | 5 | 5 | 5 | 5 | 5 | 0 | 0.5 | 5 | 5 | 4.5 | 5 | 1 | 1 | 4 | 4 |
| COC(=O)CSc1cc(N(C(=O)C2=C(C(=O)OC)CCCC2)C(=O)c2cccnc2)c(F)cc1Cl [compound 63] | 1 | 1 | 1 | 1 | 5 | 5 | 5 | 5 | 4 | 5 | 0 | 0 | 5 | 5 | 4.5 | 4.5 | 1 | 1 | 4 | 4 |
| COCCOC(=O)C1=C(C(=O)N(C(=O)c2cccnc2)c2cc(C(=O)OC)c(Cl)cc2F)CCCC1 [compound 65] | 1 | 1 | 1 | 1 | 5 | 5 | 5 | 5 | 4 | 4 | 0 | 0 | 5 | 5 | 5 | 5 | 1 | 1 | 4 | 4 |
| CCCCOC(=O)c1cc(N(C(=O)C2=C(C(=O)OC)CCCC2)C(=O)c2cccnc2)c(F)cc1Cl [compound 66] | 1 | 2 | 1 | 1 | 5 | 5 | 5 | 5 | 4 | 4 | 0 | 0 | 5 | 5 | 4.5 | 5 | 1 | 1 | 4 | 4 |
| C#CC(C)Oc1cc(N(C(=O)C2=C(C(=O)OC(C)C)CCCC2)C(=O)c2ccc(Cl)nc2)c(F)cc1Cl (stereo not drawn) [compound 68] | 1 | 1 | 1 | 1 | 5 | 5 | 5 | 5 | 5 | 5 | 0 | 0.5 | 5 | 5 | 5 | 5 | 1 | 1 | 4 | 4.5 |
